According to patent US20120322060A1, “DIAGNOSIS AND MONITORING TREATMENT OF PSYCHIATRIC DISEASES WITH SPADIN AND RELATED METHODS” (CENTRE NATIONAL DE LE RECHERCHE SCIENTIFIQUE - CNRS -, priority 2011, published 2012):
Entries after “also recorded” stand apart in the source; their conditions may differ. No end group written: not given here.

Key:
[1] = target: T1, TREK-1 (Mus musculus, UniProt P97438); test: Whole-cell patch-clamp on TREK-1 transfected COS-7 cells; format: cell-based; design: GFP; expressed in transfected cells; host or cells: COS-7 (DEAE-dextran transfection); details: after 90 sec of application
T1 sequence (P97438 1-426): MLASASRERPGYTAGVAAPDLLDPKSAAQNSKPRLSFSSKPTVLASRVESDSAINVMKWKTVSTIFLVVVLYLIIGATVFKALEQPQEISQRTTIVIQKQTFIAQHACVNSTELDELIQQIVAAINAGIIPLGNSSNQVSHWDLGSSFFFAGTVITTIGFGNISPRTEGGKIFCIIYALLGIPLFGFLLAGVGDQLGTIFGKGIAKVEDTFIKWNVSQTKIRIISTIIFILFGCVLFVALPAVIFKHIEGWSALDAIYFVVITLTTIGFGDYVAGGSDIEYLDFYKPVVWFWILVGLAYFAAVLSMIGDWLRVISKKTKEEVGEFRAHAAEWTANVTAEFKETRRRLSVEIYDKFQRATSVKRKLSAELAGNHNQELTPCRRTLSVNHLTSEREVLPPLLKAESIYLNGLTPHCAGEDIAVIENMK
Method: All electrophysiological experiments were done on COS-7 cells seeded at a density of 20,000 cells/35-mm dish 24 h before transfection. Cells were transfected by the classical DEAE-dextran method with TREK-1-GFP plasmids (0.1 μg/μL). Cells were visualized 48-72 h after transfection using fluorescence.
The whole-cell patch-clamp technique was used to evaluate TREK-1 potassium channel current by using a RK 400 patch-clamp amplifier (Axon Instruments, U.S.A.), as previously described. Currents were lowpass filtered at 3 kHz, digitized at 10 kHz using a 12-bit analog-to-digital converter. […] The bath solution contained (in mM): 150 NaCl, 5 KCl, 3 MgCl2, 1 CaCl2, and 10 HEPES, adjusted to pH 7.4 with NaOH; the patch pipette solution contained (in mM): 155 KCl, 3 MgCl2, 5 EGTA, and 10 HEPES, adjusted to pH 7.2 with KOH. Cells were clamped at −80 mV and voltage changes were either applied by ramp (from −100 to 50 mV, 1 s in duration) or by step (from −100 to 40 mV, 1.5 s in duration). Cells were continuously superfused with a microperfusion system. The pipette capacitance was not subtracted from total membrane capacitance and there was no leak substraction. All experiments were done at room temperature (21° C. to 22° C.) and in the presence of a cocktail of potassium channel inhibitors (K^+ blockers: 10 mM tetraethyl ammonium (TEA), 3 mM 4-aminopyridine (4-AP), 50 nM charybdotoxin, 10 μM glibenclamide, 100 nM apamin).
Pclamp software was used to analyze currents recorded in the whole-cell mode measured at 0 mV. Results are expressed as means±SD. To obtain the IC50 value for dose-dependent inhibition, experimental data were fitted with a standard sigmoidal function.

[2] = target: T1, TREK-1; test: Competition with 125I-spadin for binding to TREK-1 transfected COS-7 cell homogenates; design: expressed in transfected cells; host or cells: COS-7 (DEAE-dextran transfection); details: TREK-1 transfected COS-7 homogenates, read-out: affinity for TREK-1
Method: Experiments were performed using COS-7 cells (10^6 cells per diameter 100 dish) transfected with TREK-1 (2 μg/dish) in the presence or in the absence of NTSR3/sortilin (2 μg/dish) using the DEAE-dextran protocol.
Incubations were terminated by addition of 2 ml of ice-cold binding buffer followed by filtration through cellulose acetate filters (Sartorius, Göttingen, Germany) and washing twice with 2 ml of ice-cold buffer. Radioactivity on filters was counted with a gamma-counter.

[3] = system: mice; test: Novelty-Suppressed Feeding test (NSF); format: in vivo, mouse; details: 4 days; spadin i.v. 10^-6 M, fluoxetine i.p. 3 mg/kg
Method: NSF paradigm is a conflict test that elicits competing motivations: the drive to eat and the fear of venturing into the center of a bright arena. Latency to begin eating is used as an index of anxiety- and depression-like behavior. After 4 day treatment (saline or spadin, i.v.) and 24 hours food-deprivation, mice were presented with a food pellet placed in the center of a brightly plastic box (50×50×20 cm). Latency to begin eating was measured as previously described.

[4] = system: mice; test: Corticosterone assay after tube restraint stress; format: in vivo, mouse; details: 30 min after 10 min tube restraint; spadin i.p. 10^-5 M
Method: Mice were individually housed for at least 12 hours before blood sample collection. Serum samples, collected in the morning were obtained by retroorbital puncture before and 30 min after the end of a 10-min tube restraint. Levels of corticosterone were measured by radioimmunoassay using a commercially available kit (MP Biomedicals).

[5] = system: mice; test: Tail Suspension Test (TST); format: in vivo, mouse; details: subchronic, 4 days; spadin i.v. 10^-6 M, fluoxetine 3 mg/kg
Method: Mice were suspended by the tail. […] The immobility time was recorded during a 6 min test session.

[6] = target: T1, TREK-1; test: Whole-cell patch-clamp on cultured pyramidal neurons from hippocampus; format: cell-based; design: endogenous in cells; host or cells: primary hippocampal pyramidal neurons from newborn mice; details: 20 μM fluoxetine
Method: A, Cultured pyramidal neuron from hippocampus, with on top, the patch-clamp pipette. Neurons were chosen according to their morphology. B, Current recorded in response to ramps of potential obtained in the various conditions indicated (aa: arachidonic acid: 10 μM, Spadin: 1[…]μM, Fluoxetine: 20 μM). Neurons were recorded in the whole-cell configuration of the patch-clamp technique. In voltage-clamp, ramps of potential from −90 mV to 70 mV were applied every 10 sec. The % variation of the current amplitude was always measured at −50 mV. The currents were recorded in response to such ramps in control conditions and in the presence of a cocktail of potassium blockers suitable to isolate the TREK currents (10 mM tetraethyl ammonium (TEA), 3 mM 4-aminopyridine (4-AP), 50 nM charybdotoxin, 10 μM glibenclamide, 100 nM apamin). […] The blocks were reversible. C, Time course of spadin and fluoxetine effects. Applications are indicated by the horizontal bars.
Cortical neurons were prepared from 14 old mouse embryos whereas hippocampal neurons were prepared from new born mice. Briefly, dissected brain areas were dissociated and neurons were plated on polylysine-treated 35 or 60 mm dishes and maintained in culture in Neurobasal medium supplemented with B27, Glutamax and antibiotics for 2 to 3 weeks before to be used for electrophsysiological or biochemical experiments.

[7] = target: T1, TREK-1; test: Whole-cell patch-clamp on CA3 pyramidal neurons in hippocampus brain slices; format: cell-based; design: a cellular network that endogenously expresses both TREK-1 and NTSR3/Sortilin; from tissue; host or cells: mouse hippocampal brain slices, CA3 pyramidal neurons; details: wild-type CA3 neurons, no aa
[8] = system: mice; test: Porsolt Forced Swim Test (FST) in mice; format: in vivo, mouse
Method: Mice (Janvier, France) were placed individually in cylinders (height: 30 cm, diameter: 15 cm) filled with 12 cm deep water (temperature: 22±1° C.) for 6 min. The total period of immobility was recorded during the last 4 min.

[9] = system: dentate gyrus of the mouse hippocampus; test: Hippocampal neurogenesis (BrdU / DCX labeling); format: in vivo
Method: Twenty-four hours after the injection of BrdU (120 mg per kg of body weight in a 300 μl bolus), mice were euthanized and transcardially perfused with 4% cold paraformaldehyde. Serial sections of the brains were cut (40 μm) throughout the entire hippocampus on a vibratome (Leica). Every sixth section throughout the hippocampus was processed for BrdU or doublecortin (DCX) immunohistochemistry, as previously described. For each immunodetection, slides were first incubated overnight at 4° C. with a mouse monoclonal anti-BrdU antibody (1:200; Becton-Dickinson) or a goat anti-DCX (1:400, Santa Cruz Laboratories). For chromogenic immunodetection, sections were then incubated for 1 hour in biotin-conjugated species-specific secondary antibodies (1:100; Vector Laboratories) followed by a peroxidase-avidin complex solution according to the manufacturer's protocol. The peroxidase activity of immune complexes was visualized with DAB staining using the VectaStain ABC kit (Vector Laboratories). For fluorescent double-labeling, performed to determine the cell phenotype, sections were incubated overnight at 4° C. with anti-sheep BrdU (1:200, Interchim), anti-goat DCX (1:200, Santa Cruz Laboratories), or an anti-GFAP (Glial Fibrillary acidic protein, marker for astrocytes, 1:250, Dako). […] All BrdU-labeled cells in the granular cell layer and subgranular zone (SGZ) were counted in each section (n=10 and 5 mice per group) at 400× and 1000× magnification under a light microscope (Olympus) by an experimenter blinded to the study code. The total number of BrdU-positive cells per section was multiplied by 6 to obtain the total number of cells per dentate gyrus. The counting of BrdU/DCX labeled cells was performed using a Laser Scanning Confocal Microscope (TCS SP, Leica) equipped with a DMIRBE inverted microscope.

[10] = target: NTSR3/Sortilin (endogenous, C13NJ microglial cell line); test: competition with 0.2 nM 125I-NT on C13NJ cell homogenates, filtration
Sequence of NTSR3/Sortilin (endogenous, C13NJ microglial cell line) (Q99523 78-831): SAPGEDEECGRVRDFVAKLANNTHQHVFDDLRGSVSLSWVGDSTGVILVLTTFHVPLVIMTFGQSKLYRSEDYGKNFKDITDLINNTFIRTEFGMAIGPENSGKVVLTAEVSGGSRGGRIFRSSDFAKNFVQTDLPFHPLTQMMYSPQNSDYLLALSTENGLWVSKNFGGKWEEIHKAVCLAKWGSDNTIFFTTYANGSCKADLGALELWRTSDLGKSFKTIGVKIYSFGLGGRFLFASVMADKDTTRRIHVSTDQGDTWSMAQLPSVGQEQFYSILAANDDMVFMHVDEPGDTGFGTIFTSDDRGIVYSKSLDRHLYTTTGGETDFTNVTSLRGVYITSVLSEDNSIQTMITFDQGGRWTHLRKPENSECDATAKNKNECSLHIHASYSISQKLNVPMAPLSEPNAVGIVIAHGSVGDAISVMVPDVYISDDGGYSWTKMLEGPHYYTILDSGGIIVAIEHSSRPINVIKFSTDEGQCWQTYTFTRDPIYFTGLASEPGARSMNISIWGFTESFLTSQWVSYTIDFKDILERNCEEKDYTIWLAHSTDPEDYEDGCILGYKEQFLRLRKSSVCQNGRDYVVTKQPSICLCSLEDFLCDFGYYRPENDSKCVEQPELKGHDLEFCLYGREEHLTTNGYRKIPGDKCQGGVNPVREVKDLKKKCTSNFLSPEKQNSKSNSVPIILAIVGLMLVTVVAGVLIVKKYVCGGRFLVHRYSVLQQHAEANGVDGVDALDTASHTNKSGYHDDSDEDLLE

[11] = target: NTSR3/Sortilin (endogenous, C13NJ microglial cell line); test: cell-based or functional assay
[12] = target: TREK-1 channel (expressed by transfection in COS-7 cells); test: cell-based or functional assay
Sequence of TREK-1 channel (expressed by transfection in COS-7 cells) (O95069 whole entry): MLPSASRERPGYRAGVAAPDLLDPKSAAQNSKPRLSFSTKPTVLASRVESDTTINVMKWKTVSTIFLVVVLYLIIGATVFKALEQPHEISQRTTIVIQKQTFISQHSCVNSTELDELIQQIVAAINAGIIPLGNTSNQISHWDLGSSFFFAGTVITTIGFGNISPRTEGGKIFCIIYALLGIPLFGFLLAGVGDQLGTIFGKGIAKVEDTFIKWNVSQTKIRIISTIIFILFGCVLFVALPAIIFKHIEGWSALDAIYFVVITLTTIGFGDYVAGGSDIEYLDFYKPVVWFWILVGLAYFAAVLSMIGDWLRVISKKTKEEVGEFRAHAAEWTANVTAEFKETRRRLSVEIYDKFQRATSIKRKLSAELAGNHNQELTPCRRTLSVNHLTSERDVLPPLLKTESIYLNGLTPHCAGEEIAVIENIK

[13] = target: TREK-1 channel (expressed by transfection in COS-7 cells); test: competition with 0.2 nM 125I-spadin on TREK-1 transfected COS-7 cell homogenates, filtration

**Q.** How did the “inhibition of current increase induced by 10 μM aa” value [1] turn out when “QDRLDAPPPPAAPLPR [N-terminal fragment Gln1-Arg16, reference compound]” was run?
**A.** Its value is “unable to inhibit”.

**Q.** And the Kd [2]?
**A.** Its Kd is 1 µM.

**Q.** `CNCCC(Oc1ccc(C(F)(F)F)cc1)c1ccccc1` (stereo not shown) [fluoxetine, Fluoxetine, reference compound] was tested. Which “latency to feed versus saline” value [3] did it give?
**A.** The value was “had no effect”.

**Q.** What about the “reduction of stress-induced increase in corticosterone levels versus saline” value [4] of the same molecule?
**A.** The value was 59.1%.

**Q.** What about the “reduction of time spent immobile” value [5] of the same molecule?
**A.** Its value is “had no effect; also recorded: without effect”.

**Q.** What about the “block of arachidonic acid evoked current (putative TREK current)” value [6] of the same molecule?
**A.** Its value is “fully blocked”.

**Q.** And the “inhibition of the current recorded in presence of potassium blockers, substance alone” value [7]?
**A.** Its value is 13.0 ± 3.8%.

**Q.** And the “reduction of time of immobility” value ([8]; chronic, 15 days, spadin 10^-6 M, fluoxetine 1 mg/kg)?
**A.** The value was “around 30%”.

**Q.** And the “reduction of time spent immobile” value ([8]; subchronic, 4 days, spadin i.v. 10^-6 M, fluoxetine 3 mg/kg)?
**A.** Its value is “had no effect; also recorded: without effect”.

**Q.** What about the “number of BrdU-positive cells in the SGZ versus saline” value ([9]; 4-day treatment, spadin i.p. 10^-5 M) of the same molecule?
**A.** Its value is “had no effect”.

**Q.** What about the “number of BrdU-positive cells versus saline” value ([9]; 15 days) of the same molecule?
**A.** Its value is “significant increase”.

**Q.** Which results are given for APLPRWSGPIGVSWGLR [spadin]?
**A.** affinity [10]: 8 nM; C13NJ cell migration induced by 10 nM NT in the presence of 1 µM spadin (% of migration with 10% FCS) [11]: 6.2%; IC50 of dose-dependent inhibition of TREK-1 current at 0 mV [12]: 0.0707 µM; block of arachidonic acid-stimulated TREK-1 current (whole-cell patch clamp, transfected COS-7 cells, 100 nM spadin) [12]: 63%; affinity [13]: 10 nM
